Data published in PMC11024869, “The activity of antimicrobial peptoids against multidrug-resistant ocular pathogens” (Contact lens & anterior eye : the journal of the British …, 2024).
Converted amounts (≈) assume the structure as drawn. “And” between values parts separate entries of the source, which are not always exact repeats. Identical values can stand only once. Non-standard residues stand in square brackets, D forms with d. Residues, ends and D or L forms follow the SMILES beside them. Nspe(4-Br) = C[C@H](NCC(=O)O)c1ccc(Br)cc1; Nlys = NCCCCNCC(=O)O

Legend:
Type in all cases: cell-based
human erythrocytes = assay: In vitro assay for hemolysis, human blood
Procedure: (§1) Hemolysis caused by the peptoids was measured using 18 to 20 mL of a horse or human blood collected in EDTA-coated tubes which has been centrifuged at 500×g for 5 min. The supernatant was discarded and the pellet containing the cells were resuspended in PBS to a final volume of 20 mL. This step was repeated five times. After the final wash, the pellet was resuspended in PBS at the ratio of 1:10 (1 mL red blood cell: 9 mL PBS) to yield a final red blood cell (RBC) concentration of approximately 5 × 10^8 cells mL^−1. The concentration of RBCs was confirmed using a hemocytometer. The peptoids (stock concentration 2 mM) were diluted sequentially (two-fold dilutions) in PBS to final concentrations of […]. All the dilutions were subsequently mixed with the RBC suspension at the ratio of 1:1. MilliQ water was used as a positive control and PBS was used as a negative control in this assay. All samples were incubated at 37 °C for 3 h. Following incubation, the tubes were centrifuged at 500 x g for five mins, the supernatants were collected, transferred to wells in a 96 well plate and their optical density was measured at 540 nm. The percentage of hemolysis was calculated by dividing the absorbance of the test sample by the absorbance of the positive control, and multiplying by 100. Data are presented as the hemolysis caused by each dilution of peptoid, and as the concentration of peptoid that caused 10 % or 50 % lysis of red blood cells.
(§2) The geometric mean is the nth root of the multiplied numbers, where n is the total number of data values. A similar formula was used to calculate the selectivity ratio, but by using the concentration of peptoid that caused 10 % hemolysis.

[1] = tested on: Pseudomonas aeruginosa PA216; details: PA216, 24 h
Excerpt: (§3) The S. pneumoniae strains used were SP04, SP06 and SP07 [46] and Streptococcus gallolyticus SV06 (all isolated from eyes of contact lens wearers during adverse events); P. aeruginosa PAO1 (which was originally isolated from a wound, and is an invasive strain containing the gene exoS) as well as isolates from microbial keratitis, PA 235 (invasive strain containing exoS), PA216 (a cytotoxic strain containing exoU), PA219 (cytotoxic strain containing exoU), PA 233 (cytotoxic strain containing exoU), with various susceptibilities to antibiotics were also used [14]. C. albicans ATCC 10231, a yeast, isolated from case of a human bronchomycosis, was also evaluated.
(§4) The peptoids’ minimum inhibitory and bactericidal concentrations (MIC and MBC) were determined using micro broth dilution methods as previously described with slight modifications, [26, 39, 49, 50], and without using acetic acid and bovine serum albumin [39]. Briefly, bacteria or yeast were suspended in Muller Hinton broth (MHB, Oxoid, Thermo Fisher Scientific, Thebarton, SA, Australia) at 0.1 OD660nm, which was equivalent to 1x10^8 colony forming units (CFU) mL^−1. This suspension was further diluted to achieve 5x10^6 CFU mL^−1. The peptoids were diluted in MHB from 250 to 0.24 μg mL^−1 in 96-well polystyrene microplates (COSTAR, Corning Incorporated, New York, NY, USA) [39]. […] This was followed by addition of 100 μL of each microbial suspensions. Wells with only bacteria or the yeast were treated as a negative control, and wells with only MHB medium were treated as a blank. The plates were incubated at 37 °C with shaking at 120 rpm for 24 h. After incubation, the media in each well was serially diluted in phosphate buffered solution and then inoculated onto tryptone soya agar (Oxoid) plates for bacteria, or Sabouraud’s dextrose agar for the yeast, and incubated at 37 °C for 18 hrs. Post incubation, the number of CFUs on the agar plates was counted.

[2] = tested on: Staphylococcus aureus SA34; details: SA34, 24 h
Excerpt: as §3, §4

[3] = tested on: Staphylococcus aureus SA114; details: SA114, 24 h
Excerpt: as §3, §4

[4] = tested on: Pseudomonas aeruginosa PA235; details: PA235, 24 h
Excerpt: as §3, §4

[5] = tested on: Pseudomonas aeruginosa PAO1; details: PAO1, 24 h
Excerpt: as §3, §4

[6] = tested on: Candida albicans ATCC 10231; assay: MIC/MBC (fungicidal) micro broth dilution; details: ATCC 10231 (yeast), MHB, 24 h 37 °C
Excerpt: as §3, §4

[7] = tested on: Streptococcus pneumoniae SP07; details: SP07, 24 h
Excerpt: as §3, §4

tested bacteria = assay: Geometric mean of MIC of the tested bacteria; details: nth root of the multiplied MICs of the tested bacteria
Excerpt: as §2

[8] = tested on: Staphylococcus aureus SA113; details: SA113, 24 h
Excerpt: as §3, §4

[9] = tested on: Pseudomonas aeruginosa PA219; details: PA219, 24 h
Excerpt: as §3, §4

[10] = tested on: Staphylococcus aureus SA117; details: SA117, 24 h
Excerpt: as §3, §4

[11] = tested on: Streptococcus pneumoniae SP06; details: SP06, 24 h
Excerpt: as §3, §4

[12] = tested on: Staphylococcus aureus SA65; details: SA65, 24 h
Excerpt: as §3, §4

[13] = tested on: viridans group streptococcus SV06; details: 24 h
Excerpt: as §3, §4

horse erythrocytes = assay: In vitro assay for hemolysis, horse blood
Procedure: as §1, §2

[14] = tested on: Pseudomonas aeruginosa PA233; details: PA233, 24 h
Excerpt: All S. aureus strains used were isolated from cases of microbial keratitis (Table 1) with various susceptibilities to antibiotics. The S. pneumoniae strains used were SP04, SP06 and SP07 [46] and Streptococcus gallolyticus SV06 (all isolated from eyes of contact lens wearers during adverse events); P. aeruginosa PAO1 (which was originally isolated from a wound, and is an invasive strain containing the gene exoS) as well as isolates from microbial keratitis, PA 235 (invasive strain containing exoS), PA216 (a cytotoxic strain containing exoU), PA219 (cytotoxic strain containing exoU), PA 233 (cytotoxic strain containing exoU), with various susceptibilities to antibiotics were also used. C. albicans ATCC 10231, a yeast, isolated from case of a human bronchomycosis, was also evaluated.
The peptoids’ minimum inhibitory and bactericidal concentrations (MIC and MBC) were determined using micro broth dilution methods as previously described with slight modifications, [26, 39, 49, 50], and without using acetic acid and bovine serum albumin [39]. Briefly, bacteria or yeast were suspended in Muller Hinton broth (MHB, Oxoid, Thermo Fisher Scientific, Thebarton, SA, Australia) at 0.1 OD660nm, which was equivalent to 1x10^8 colony forming units (CFU) mL^−1. This suspension was further diluted to achieve 5x10^6 CFU mL^−1. The peptoids were diluted in MHB from 250 to 0.24 μg mL^−1 in 96-well polystyrene microplates (COSTAR, Corning Incorporated, New York, NY, USA). This range was selected to cover the range of MIC values previously reported for ESKAPE pathogens. This was followed by addition of 100 μL of each microbial suspensions. Wells with only bacteria or the yeast were treated as a negative control, and wells with only MHB medium were treated as a blank. The plates were incubated at 37 °C with shaking at 120 rpm for 24 h. After incubation, the media in each well was serially diluted in phosphate buffered solution and then inoculated onto tryptone soya agar (Oxoid) plates for bacteria, or Sabouraud’s dextrose agar for the yeast, and incubated at 37 °C for 18 hrs. Post incubation, the number of CFUs on the agar plates was counted.

[15] = tested on: Streptococcus pneumoniae SP04; details: SP04, 24 h
Excerpt: as §3, §4

[16] = tested on: Streptococcus gallolyticus SG04; details: 24 h
Excerpt: as §3, §4

## C[C@@H](c1ccc(Br)cc1)N(CC(=O)N(CCCCN)CC(=O)N(CC(=O)N(CC(=O)N(CCCCN)CC(N)=O)[C@@H](C)c1ccc(Br)cc1)[C@@H](C)c1ccc(Br)cc1)C(=O)CN(C(=O)CNCCCCN)[C@@H](C)c1ccc(Br)cc1 [TM14] (H-[Nlys][Nspe(4-Br)][Nspe(4-Br)][Nlys][Nspe(4-Br)][Nspe(4-Br)][Nlys]-NH2)
Human erythrocytes
  SR human blood (ratio HC10 to geometric mean MIC): 2
Human erythrocytes; red cells of human, 3 h
  Human HC10: 8 µM
  Human HC50: 90 µM
Human erythrocytes; therapeutic index
  TI human blood (ratio HC50 to geometric mean MIC): 23
[1]
  MBC: 15 µg/mL (≈ 11 µM)
  MIC: 7.8 µg/mL (≈ 5.73 µM)
[2]
  MBC: 3.9(2.9)/3.9(2.9) μg mL^−1
  MIC: 3.9(2.9)/3.9(2.9) μg mL^−1
[3]
  MBC: 1.9(1.4)/1.9(1.4) μg mL^−1
  MIC: 1.9(1.4)/1.9(1.4) μg mL^−1
[4]
  MBC: 31 µg/mL (≈ 22.8 µM)
  MIC: 15 µg/mL (≈ 11 µM)
[5]
  MBC: 15 µg/mL (≈ 11 µM)
  MIC: 7.8 µg/mL (≈ 5.73 µM)
[6]; ≥90 % reduction in CFUs
  MIC: 3.9(2.8)/3.9(2.8) μg mL^−1
[6]; ≥99.99 % reduction in CFUs
  MBC (minimum fungicidal concentration): 3.9(2.8)/3.9(2.8) μg mL^−1
[7]
  MBC: 15(11)/15(11) μg mL^−1
  MIC: 15(11)/15(11) μg mL^−1
Tested bacteria
  Geometric mean of MIC: 4.0 µM and 4 µM
[8]
  MBC: 3.9 µg/mL (≈ 2.86 µM)
  MIC: 1.9 µg/mL (≈ 1.4 µM)
[9]
  MBC: 15(11)/15(11) μg mL^−1
  MIC: 15(11)/15(11) μg mL^−1
[10]
  MBC: 3.9(2.9)/3.9(2.9) μg mL^−1
  MIC: 3.9(2.9)/3.9(2.9) μg mL^−1
[11]
  MBC: 1.9(1.4)/1.9(1.4) μg mL^−1
  MIC: 1.9(1.4)/1.9(1.4) μg mL^−1
[12]
  MBC: 1.9(1.4)/1.9(1.4) μg mL^−1
  MIC: 1.9(1.4)/1.9(1.4) μg mL^−1
[13]
  MBC: 15(11)/15(11) μg mL^−1
  MIC: 15(11)/15(11) μg mL^−1
Horse erythrocytes
  SR horse blood (ratio HC10 to geometric mean MIC): 0.8
Horse erythrocytes; red cells of horse, 3 h
  Horse HC10: 3 µM
  Horse HC50: 45 µM
Horse erythrocytes; therapeutic index
  TI horse blood (ratio HC50 to geometric mean MIC): 11
[14]
  MBC: 31 µg/mL (≈ 22.8 µM)
  MIC: 15 µg/mL (≈ 11 µM)
[15]
  MBC: 15(11)/15(15) μg mL^−1
  MIC: 15(11)/15(15) μg mL^−1
[16]
  MBC: 15(11)/15(11) μg mL^−1
  MIC: 15(11)/15(11) μg mL^−1
